The results in this text go back to patent US12649750B2, “Macrocyclic compounds, compositions, and methods of using thereof” (Sionna Therapeutics Inc., priority 2022, dated 2026).

In one test the target is T1, CFTR (Homo sapiens, UniProt P13569, DEL508-508).
T1 construct: Primary human bronchial epithelial cells from a ΔF508 homozygous CF donor; host or cells: primary human bronchial epithelial cells (CF-HBE), ΔF508 homozygous donor
In words: TECC24 AUC fold over DMSO @10 μM, CFTR-mediated transepithelial chloride transport in CF-HBE cells. The note with it: test agent AUC divided by DMSO vehicle AUC, primary CF-HBE cells, ΔF508 homozygous donor, 48 hours incubation. The test is classed as cell-based. The gist of the method:
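Value is ratio of test-agent to DMSO AUC of equivalent transepithelial Cl− current, integrated from forskolin (10 μM) stimulation to CFTR inhibitor-172 (20 μM) block, with benzamil 10 μM present. CF-HBE (ΔF508/ΔF508) cultures had 48 h compound exposure at 10 μM, 36.5° C before recording.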

In another test the target is T2, NBD1 (Homo sapiens, UniProt P13569).
T2 construct: Purified recombinant NBD1 was produced using previously described methods; made in house
In words: Aggregation analysis using differential static light scattering (DSLS), thermal stability of NBD1 (ΔTagg). The test is classed as binding. The note with it: ΔTagg versus DMSO control, NBD1 0.2 mg/ml. The gist of the method:
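NBD1 0.2 mg/ml, S200 buffer (50 mM Tris-HCl, 150 mM NaCl, 5 mM MgCl2, 2 mM ATP, 2 mM DTT, pH7.6) + 1% glycerol; cpd in DMSO; oil overlay. Ramp 25→70° C. at 1° C./min, DSLS images every 0.5° C. ΔTagg = Tagg (inflection) − mean DMSO Tagg.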

T1 sequence (P13569 with tags, fused parts or gaps DEL508-508): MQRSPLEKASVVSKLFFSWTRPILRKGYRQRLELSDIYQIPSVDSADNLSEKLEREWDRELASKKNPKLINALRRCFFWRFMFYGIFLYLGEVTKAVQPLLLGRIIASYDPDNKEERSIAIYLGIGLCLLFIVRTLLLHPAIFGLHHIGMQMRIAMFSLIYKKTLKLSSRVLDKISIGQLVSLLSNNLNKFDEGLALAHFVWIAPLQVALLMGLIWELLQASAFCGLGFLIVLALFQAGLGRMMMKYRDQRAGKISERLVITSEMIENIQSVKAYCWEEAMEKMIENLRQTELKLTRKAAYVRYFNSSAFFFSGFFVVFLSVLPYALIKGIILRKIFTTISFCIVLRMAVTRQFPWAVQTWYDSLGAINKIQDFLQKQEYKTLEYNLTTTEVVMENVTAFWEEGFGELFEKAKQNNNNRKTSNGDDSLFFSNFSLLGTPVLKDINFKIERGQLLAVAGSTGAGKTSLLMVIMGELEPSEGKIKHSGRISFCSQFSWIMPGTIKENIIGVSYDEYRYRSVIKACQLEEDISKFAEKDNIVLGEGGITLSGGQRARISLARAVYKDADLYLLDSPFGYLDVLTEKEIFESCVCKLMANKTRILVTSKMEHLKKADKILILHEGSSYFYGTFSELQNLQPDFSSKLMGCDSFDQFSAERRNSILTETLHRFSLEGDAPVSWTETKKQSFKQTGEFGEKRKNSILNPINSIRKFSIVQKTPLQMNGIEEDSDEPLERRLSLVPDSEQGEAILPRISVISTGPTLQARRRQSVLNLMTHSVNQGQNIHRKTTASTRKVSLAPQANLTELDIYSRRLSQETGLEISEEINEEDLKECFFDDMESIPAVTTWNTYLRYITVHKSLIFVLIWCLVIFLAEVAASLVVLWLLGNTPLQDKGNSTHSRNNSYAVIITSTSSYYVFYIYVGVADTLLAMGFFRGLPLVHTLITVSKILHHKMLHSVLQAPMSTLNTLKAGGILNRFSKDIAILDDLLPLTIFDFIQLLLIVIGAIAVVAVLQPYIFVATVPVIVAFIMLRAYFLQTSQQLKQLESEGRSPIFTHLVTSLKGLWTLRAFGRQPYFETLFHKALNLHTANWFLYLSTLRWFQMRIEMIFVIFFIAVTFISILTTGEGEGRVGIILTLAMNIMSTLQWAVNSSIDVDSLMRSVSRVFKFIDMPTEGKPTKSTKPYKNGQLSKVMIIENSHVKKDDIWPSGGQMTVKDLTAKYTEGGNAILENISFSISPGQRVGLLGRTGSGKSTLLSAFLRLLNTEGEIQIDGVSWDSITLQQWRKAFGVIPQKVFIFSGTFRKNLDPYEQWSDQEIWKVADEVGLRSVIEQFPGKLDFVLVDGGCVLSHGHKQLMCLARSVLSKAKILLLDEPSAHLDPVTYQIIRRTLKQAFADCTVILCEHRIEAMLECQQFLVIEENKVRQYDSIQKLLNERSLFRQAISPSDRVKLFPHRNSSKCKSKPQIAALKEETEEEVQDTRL
T2 sequence (P13569 423-646 limits assumed): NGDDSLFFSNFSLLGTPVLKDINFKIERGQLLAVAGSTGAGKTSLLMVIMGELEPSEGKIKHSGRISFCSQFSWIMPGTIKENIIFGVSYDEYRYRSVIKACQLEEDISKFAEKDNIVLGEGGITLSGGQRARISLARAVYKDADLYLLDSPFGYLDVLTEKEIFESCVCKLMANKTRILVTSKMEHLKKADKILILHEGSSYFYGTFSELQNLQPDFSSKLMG

Consider `Cn1nc2nc1-c1cc(ccn1)C(=O)c1c(F)cc3[nH]ccc3c1CCS(=O)(=O)CC(C)(C)CCC[C@]2(C)c1cccc(CCC(=O)O)c1` [Compound 238, 3-[3-[(6R)-22-fluoro-3,6,10,10-tetramethyl-12,12,24-trioxo-12λ6-thia-3,4,19,28,30-pentazapentacyclo[23.3.1.12,5.015,23.016,20]triaconta-1(29),2(30),4,15,17,20,22,25,27-nonaen-6-yl]phenyl]propanoic acid], for which, at CFTR, the “TECC (AUC, 10 μM)” value was “A (a TECC value less than 12 is marked “A”)”. For the same compound, on NBD1, the “DSLS 3D (100 μM ΔT)” value is “C (a value greater than 10 °C and less than or equal to 25 °C is marked “C”)”.
As to `C[C@@H](Cc1cccc([C@@]2(C)CCCC(C)(C)CS(=O)(=O)CCc3c(c(F)cc4[nH]ccc34)Sc3ccc(F)c(c3)-c3nc2cs3)c1)C(=O)O` [Compound 240, (2S)-3-[3-[(6R)-22,28-difluoro-6,10,10-trimethyl-12,12-dioxo-3,12λ6,24-trithia-19,30-diazapentacyclo[23.3.1.12,5.015,23.016,20]triaconta-1(29),2(30),4,15,17,20,22,25,27-nonaen-6-yl]phenyl]-2-methyl-propanoic Acid], the “TECC (AUC, 10 μM)” value at CFTR was “A (a TECC value less than 12 is marked “A”)”. Also, the “DSLS 3D (100 μM ΔT)” value at NBD1 was “B (a value above 5 °C and less than or equal to 10 °C is marked “B”)”.
For the compound `C[C@@H](Cc1cccc([C@@]2(C)CCCC(C)(C)CS(=O)(=O)CCc3c(c(F)cc4[nH]ccc34)Sc3ccc(F)c(c3)-c3nc2nn3C)c1)C(=O)O` [Compound 242, (2S)-3-[3-[(6R)-22,28-difluoro-3,6,10,10-tetramethyl-12,12-dioxo-12λ6,24-dithia-3,4,19,30-tetrazapentacyclo[23.3.1.12,5.015,23.016,20]triaconta-1(29),2(30),4,15,17,20,22,25,27-nonaen-6-yl]phenyl]-2-methyl-propanoic Acid], the “TECC (AUC, 10 μM)” value on CFTR was “C (a value between 20 and 80 is marked “C”)”. Moreover, on NBD1, the “DSLS 3D (100 μM ΔT)” value is “C (a value greater than 10 °C and less than or equal to 25 °C is marked “C”)”.
For the compound `C[C@@H](Cc1cccc([C@@]2(C)CCCC(C)(C)CS(=O)(=O)CCc3c(c(F)cc4[nH]ccc34)Oc3cncc(c3)-c3nc2nn3C)c1)C(=O)O` [Compound 244, (2S)-3-[3-[(6R)-22-fluoro-3,6,10,10-tetramethyl-12,12-dioxo-24-oxa-12λ6-thia-3,4,19,27,30-pentazapentacyclo[23.3.1.12,5.015,23.016,20]triaconta-1(29),2(30),4,15(23),16(20),17,21,25,27-nonaen-6-yl]phenyl]-2-methyl-propanoic Acid], the “TECC (AUC, 10 μM)” value at CFTR was “C (a value between 20 and 80 is marked “C”)”. Besides, the “DSLS 3D (100 μM ΔT)” value on NBD1 is “C (a value greater than 10 °C and less than or equal to 25 °C is marked “C”)”.
For `C[C@@H](Cc1cccc([C@@]2(C)CCCC(C)(C)CS(=O)(=O)CCc3c(c(F)c(F)c4[nH]ccc34)Oc3ccc(F)c(c3)-c3nc2nn3C)c1)C(=O)O` [Compound 245, (2S)-2-methyl-3-[3-[(6R)-21,22,28-trifluoro-3,6,10,10-tetramethyl-12,12-dioxo-24-oxa-12λ6-thia-3,4,19,30-tetrazapentacyclo[23.3.1.12,5.015,23.016,20]triaconta-1(29),2(30),4,15,17,20,22,25,27-nonaen-6-yl]phenyl]propanoic Acid], the “TECC (AUC, 10 μM)” value on CFTR was “C (a value between 20 and 80 is marked “C”)”. Moreover, the “DSLS 3D (100 μM ΔT)” value at NBD1 is “C (a value greater than 10 °C and less than or equal to 25 °C is marked “C”)”.
With `Cn1nc2nc1-c1cc(ccn1)C(=O)c1c(F)cc3[nH]ccc3c1CCS(=O)(=O)CC(C)(C)CCC[C@]2(C)c1cccc(CC(=O)O)c1` [Compound 247, 2-[3-[(6R)-22-fluoro-3,6,10,10-tetramethyl-12,12,24-trioxo-12λ6-thia-3,4,19,28,30-pentazapentacyclo[23.3.1.12,5.015,23.016,20]triaconta-1(29),2(30),4,15,17,20,22,25,27-nonaen-6-yl]phenyl]acetic Acid], the “TECC (AUC, 10 μM)” value at CFTR is “C (a value between 20 and 80 is marked “C”)”. The “DSLS 3D (100 μM ΔT)” value on NBD1 was “C (a value greater than 10 °C and less than or equal to 25 °C is marked “C”)”.
`Cn1nc2nc1-c1cc(ccn1)Sc1c(F)cc3[nH]ccc3c1CCS(=O)(=O)CC(C)(C)CCC[C@]2(C)c1cccc(CC(=O)O)c1` [Compound 251, 2-[3-[(6R)-22-Fluoro-3,6,10,10-tetramethyl-12,12-dioxo-12λ6,24-dithia-3,4,19,28,30-pentazapentacyclo[23.3.1.12,5.015,23.016,20]triaconta-1(29),2(30),4,15,17,20,22,25,27-nonaen-6-yl]phenyl]acetic Acid]: the “TECC (AUC, 10 μM)” value at CFTR is recorded as “B (a value between 12-20 is marked “B”)”. The “DSLS 3D (100 μM ΔT)” value at NBD1 is “C (a value greater than 10 °C and less than or equal to 25 °C is marked “C”)”.
On to `Cn1nc2nc1-c1cncc(c1)Oc1c(F)cc3[nH]ccc3c1CCS(=O)(=O)CC(C)(C)CCC[C@]2(C)c1cccc(CCC(=O)O)c1` [Compound 252, 3-[3-[(6R)-22-Fluoro-3,6,10,10-tetramethyl-12,12-dioxo-24-oxa-12λ6-thia-3,4,19,27,30-pentazapentacyclo[23.3.1.12,5.015,23.016,20]triaconta-1(29),2(30),4,15(23),16(20),17,21,25,27-nonaen-6-yl]phenyl]propanoic Acid], for which, on CFTR, the “TECC (AUC, 10 μM)” value was “C (a value between 20 and 80 is marked “C”)”. Moreover, the “DSLS 3D (100 μM ΔT)” value at NBD1 is “C (a value greater than 10 °C and less than or equal to 25 °C is marked “C”)”.
With `C[C@@H](Cc1cccc([C@@]2(C)CCCC(C)(C)CS(=O)(=O)CCc3c(c(F)cc4[nH]ccc34)Sc3ccnc(c3)-c3nc2nn3C)c1)C(=O)O` [Compound 253, (2S)-3-[3-[(6R)-22-fluoro-3,6,10,10-tetramethyl-12,12-dioxo-12λ6,24-dithia-3,4,19,28,30-pentazapentacyclo[23.3.1.12,5.015,23.016,20]triaconta-1(29),2(30),4,15,17,20,22,25,27-nonaen-6-yl]phenyl]-2-methyl-propanoic Acid], the “TECC (AUC, 10 μM)” value at CFTR is on record as “B (a value between 12-20 is marked “B”)”. Besides, at NBD1, the “DSLS 3D (100 μM ΔT)” value is “C (a value greater than 10 °C and less than or equal to 25 °C is marked “C”)”.
Consider `C[C@@H](Cc1cccc([C@@]2(C)CCCC(C)(C)CS(=O)(=O)CCc3c(c(F)cc4[nH]ccc34)Oc3cnnc(c3)-c3nc2nn3C)c1)C(=O)O` [Compound 256, (2S)-3-[3-[(6R)-22-Fluoro-3,6,10,10-tetramethyl-12,12-dioxo-24-oxa-12λ6-thia-3,4,19,27,28,30-hexazapentacyclo[23.3.1.12,5.015,23.016,20]triaconta-1(29),2(30),4,15,17,20,22,25,27-nonaen-6-yl]phenyl]-2-methyl-propanoic Acid], for which the “TECC (AUC, 10 μM)” value on CFTR is “C (a value between 20 and 80 is marked “C”)”. In addition, at NBD1, the “DSLS 3D (100 μM ΔT)” value is “C (a value greater than 10 °C and less than or equal to 25 °C is marked “C”)”.
Turning to `Cn1nc2nc1-c1cc(ccn1)Oc1c(F)c(F)c3[nH]ccc3c1CCS(=O)(=O)CC(C)(C)CCC[C@]2(C)c1cccc(CC(=O)O)c1` [Compound 257, 2-[3-[(6R)-21,22-difluoro-3,6,10,10-tetramethyl-12,12-dioxo-24-oxa-12λ6-thia-3,4,19,28,30-pentazapentacyclo[23.3.1.12,5.015,23.016,20]triaconta-1(29),2(30),4,15,17,20,22,25,27-nonaen-6-yl]phenyl]acetic Acid], the “TECC (AUC, 10 μM)” value at CFTR is listed as “B (a value between 12-20 is marked “B”)”. Moreover, the “DSLS 3D (100 μM ΔT)” value at NBD1 was “C (a value greater than 10 °C and less than or equal to 25 °C is marked “C”)”.
